Laboratory results as given in paper PMC7497641, “Neurotropic activity and safety of methylene-cycloalkylacetate (MCA) derivative 3-(3-allyl-2-methylenecyclohexyl) propanoic acid” (ACS Chemical Neuroscience, 2020).

Legend:
Experiment in all cases: PhosphoSens CSox based kinase assay
Format in all cases: biochemical
[1] = target: T1, AKT1 (Homo sapiens, UniProt P31749); conditions: 5 μM HU-MCA-13
T1 construct: AKT1, amino acids 104-480, Carna (cat. & lot #: 01 -101,; purchased Carna 01-101
Excerpt: (§1) The initial focus was to measure the modulatory activity in vitro of MCA-13 on protein kinases which were reported to be involved in induction of neurite outgrowth.[18],[43] To do this, we took advantage of a powerful method to measure the activity of recombinant protein kinases using a homogeneous and continuous (kinetic) format, where the level of chelation-enhanced fluorescence (CHEF) is directly proportional to the amount of phosphorylated, real-time sensors consisting of sulfonamido-oxine (Sox) chromophore linked to a peptide or protein substrates of selective kinases.[44] This assay is ideal for elucidating drug mechanism of action and is increasingly being applied earlier in the drug development workflow to address off target effects and/or the challenges and opportunities for next generation protein kinase inhibitors.[45] Since neurotrophins induce neurite outgrowth by activating the different tropomyosin kinase receptors (Trk), and small molecules agonists of Trk receptors can selectively activate Trks,[46] we first investigated the ability of HU-MCA-13 to modulate TRKA, TRKB and TRKC phosphorylation activities (Supporting Information, Figure S3-2). […] The TRKs constructs used in the assay contained only the intracellular kinase domain (amino acids 442–786) and therefore presently we cannot exclude that HU-MCA-13 may interact with the TRKs extracellular domain thereby inducing the conformational change required for the kinase domain activation. […] Moreover, no effects of HU-MCA-13were found on other kinases (ASK1, ERK2, JNK3, p38α, CDK5, KDR-VEGFR, AKT1, GSK3β, PDGFRβ, PKACα, PKC, CK1, IKKβ) which stimulate neurite outgrowth. Also, no effects were observed of HU-MCA-13 on kinases (EGFR, IGF1R, FGFR 1 and 2, CAMK2α,) which inhibit neurite outgrowth or calcineurin phosphatase which dephosphorylates the neurite outgrowth stimulatory protein, cofilin.[47]
(§2) MCA-13 safety b y in vitro eval uati on usi ng Phos pho Sens®C Soxb ased kinase […]
(§3) Method: Kinase Activity Measurements
(§4) Kinase activity was measured continuously using the PhosphoSens®technology (AssayQuant Technologies Inc., Marlborough, MA) according to the manufacturers’ recommendations (http://www.assayquant.com/) . This one-step homogeneous assay use s chelation-enh anced fluorescence via optimized substrate sensors unique for each kinase, containing the unnatural fluorogenic amino-acid Sox.
(§5) The following kinases which, upon stimulation or inhibition with small molecule modulators, induced neurite outgrowth, were obtained from different companies and were used in this study at the following concentrations: 2.
(§6) 25 µL final reaction volume including : 2.5 µl Sox-based substrate (10 x), 17.5 µl reaction mix with AT P, 5.0 µL Kinase [5x in EDB (Enzyme Dilution Buffer : 20 mM TRIS, pH 8.0, 0.01% Brij -35, 0.1 mM EGTA, 5% Glycerol, 1 mM DTT, 1 mg/mL Bovine Serum Albumin]. 5-45 min preincubation (all except EDB/kinase) at 30 °C of substrate in reaction mix and ATP ensuring that the progress kinetic curve for the background fluorescence w as flat. Reaction was run at 30 °C for […]
(§7) Final Reaction Conditions.
(§8) Protein kinase activity was determined in 54 mM HEPES, pH 7.5 1 mM ATP 1.2 mM DTT (none in ASK1) 0.012% Brij-35 1% glycerol 0.2 mg/ml BSA 0.52 mM EGTA (none in assays of CAMK2α, PKCε, PKCι, Calcineurin A/B) 140 µM phosphatidylserine/3.8 µM diacylglycerol (PKCε, PKCι only) 5 ng/µl calmodulin/0.4 mM CaCl2 (CAMK2α, Calcineurin A/B only) 10 mM […]
(§9) IKKβ, AKT1, GSK3β, PKCε, PKCι, PKACα, KDR, CK1δ, EGFR, ASK1, IGF1R, CAMK2α, DLK, FGFR2, FGFR1) in the presence or absence of 5 µ M H U-MCA-13 test compound. All components e xcept enzyme were equilibrated to 30 °C prior to setting up reactions run in Corning, 384-well, white flat round bottom polystyrene NBS microplates (Cat. #3824) after sealing using optically-clear adhesive film [TopSealA -Plus plate seal, PerkinElmer (Cat. #6050185)], applied with a roller to eliminate evaporation and resulting drift. Europium was added to a final […]

[2] = target: T2, ASK1 (Homo sapiens, UniProt Q99683); conditions: 5 μM HU-MCA-13
T2 construct: ASK1, amino acids 1-1374, Invitrogen; purchased Invitrogen PV3809
Excerpt: as §1, §2, §3, §4, §5, §6, §7, §8, §9

[3] = target: T3, FGFR 2 (Homo sapiens, UniProt P21802); conditions: 5 μM HU-MCA-13
T3 construct: purchased Carna 08-134
Excerpt: as §1, §2, §3, §4, §5, §6, §7, §8, §9

[4] = target: T4, GSK3β (Homo sapiens, UniProt P49841); conditions: 5 μM HU-MCA-13
T4 construct: GSK3β, amino acids 1 -420, Carna (cat. & lot #: 04-141/13CBS-; purchased Carna 04-141
Excerpt: as §1, §2, §3, §4, §5, §6, §7, §8, §9

[5] = target: T5, IGF1R (Homo sapiens, UniProt P08069); conditions: 5 μM HU-MCA-13
T5 construct: amino acids 959-1367, Carna (cat. & lot #: 08); purchased Carna 08-141
Excerpt: as §1, §2, §3, §4, §5, §6, §7, §8, §9

[6] = target: T6, IKKβ (Homo sapiens, UniProt O14920); conditions: 5 μM HU-MCA-13
T6 construct: purchased Invitrogen PV3836
Excerpt: as §1, §2, §3, §4, §5, §6, §7, §8, §9

[7] = target: T7, JNK3 (Homo sapiens, UniProt P53779); conditions: 5 μM HU-MCA-13
T7 construct: JNK 3, amino acids 1 -426, Carna; purchased Carna 04-150
Excerpt: as §1, §2, §3, §4, §5, §6, §7, §8, §9

[8] = target: T8, PDGFRβ (Homo sapiens, UniProt P09619); conditions: 5 μM HU-MCA-13
T8 construct: PDGFRβ, amino acids 557 -1106, Carna; purchased Carna 08-158
Excerpt: as §1, §2, §3, §4, §5, §6, §7, §8, §9

[9] = target: T9, PKACα (Homo sapiens, UniProt P17612); conditions: 5 μM HU-MCA-13
T9 construct: PKACα, amino acids 1 -351, Carna (cat. & lot #: 01 -127/10CBS -0315N)/; purchased Carna 01-127
Excerpt: as §1, §2, §3, §4, §5, §6, §7, §8, §9

[10] = tested on: PKC; conditions: 5 μM HU-MCA-13
Excerpt: as §1, §2, §3, §4, §5, §6, §7, §8, §9

[11] = target: T10, TRKA (Homo sapiens, UniProt P04629); conditions: 5 μM HU-MCA-13; intracellular kinase domain
T10 construct: purchased BPS Bio 40280 (lot 151113G)
Excerpt: as §1, §2, §3, §4, §5, §6, §7, §8, §9

[12] = target: T11, TRKC (Homo sapiens, UniProt Q16288); conditions: 5 μM HU-MCA-13; no effect on initial rate, small delay in later stage of progress curve
T11 construct: TRKC, amino acids 45 6-825, BPS Bio; purchased BPS Bio 40282 (lot 140205-G2)
Excerpt: as §1, §2, §3, §4, §5, §6, §7, §8, §9

[13] = target: T12, p38α (Homo sapiens, UniProt Q16539); conditions: 5 μM HU-MCA-13
T12 construct: p38α, amino acids 9-352, Carna (cat. & lot #: 04-152,; purchased Carna 04-152
Excerpt: as §1, §2, §3, §4, §5, §6, §7, §8, §9

T6 sequence (O14920 whole entry): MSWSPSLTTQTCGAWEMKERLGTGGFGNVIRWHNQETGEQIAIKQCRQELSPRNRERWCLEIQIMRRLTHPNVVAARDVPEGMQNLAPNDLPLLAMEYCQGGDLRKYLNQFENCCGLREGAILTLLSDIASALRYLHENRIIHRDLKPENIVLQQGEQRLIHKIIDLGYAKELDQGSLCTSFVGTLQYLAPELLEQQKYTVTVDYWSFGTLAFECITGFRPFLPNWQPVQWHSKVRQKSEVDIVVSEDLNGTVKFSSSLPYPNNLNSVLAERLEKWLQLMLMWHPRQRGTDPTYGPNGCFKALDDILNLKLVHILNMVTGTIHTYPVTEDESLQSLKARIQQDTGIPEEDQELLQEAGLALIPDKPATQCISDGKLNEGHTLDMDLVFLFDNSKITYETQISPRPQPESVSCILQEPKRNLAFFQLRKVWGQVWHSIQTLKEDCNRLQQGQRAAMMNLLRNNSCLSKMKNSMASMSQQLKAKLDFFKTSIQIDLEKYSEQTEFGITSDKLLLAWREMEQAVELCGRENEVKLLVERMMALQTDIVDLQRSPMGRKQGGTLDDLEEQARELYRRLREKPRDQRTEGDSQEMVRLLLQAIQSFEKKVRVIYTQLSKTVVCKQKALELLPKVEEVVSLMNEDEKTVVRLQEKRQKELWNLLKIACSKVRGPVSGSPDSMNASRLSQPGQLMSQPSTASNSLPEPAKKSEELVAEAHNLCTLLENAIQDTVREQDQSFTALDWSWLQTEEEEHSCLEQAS
T8 sequence (P09619 557-1106): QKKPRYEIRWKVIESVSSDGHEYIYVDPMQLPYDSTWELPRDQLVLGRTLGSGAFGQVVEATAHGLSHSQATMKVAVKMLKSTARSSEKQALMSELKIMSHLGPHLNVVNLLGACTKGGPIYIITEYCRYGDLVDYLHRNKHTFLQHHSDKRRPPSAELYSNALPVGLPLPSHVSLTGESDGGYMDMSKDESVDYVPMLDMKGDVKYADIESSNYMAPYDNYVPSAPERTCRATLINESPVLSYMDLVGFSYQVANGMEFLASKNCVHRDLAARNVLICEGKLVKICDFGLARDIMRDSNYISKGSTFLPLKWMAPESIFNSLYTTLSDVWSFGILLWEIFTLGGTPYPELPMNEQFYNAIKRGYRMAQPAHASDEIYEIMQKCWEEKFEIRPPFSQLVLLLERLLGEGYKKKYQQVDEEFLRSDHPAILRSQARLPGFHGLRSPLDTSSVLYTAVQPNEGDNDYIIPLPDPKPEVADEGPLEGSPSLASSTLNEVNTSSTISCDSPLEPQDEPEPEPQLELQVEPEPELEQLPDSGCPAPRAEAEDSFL
T7 sequence (P53779 39-464): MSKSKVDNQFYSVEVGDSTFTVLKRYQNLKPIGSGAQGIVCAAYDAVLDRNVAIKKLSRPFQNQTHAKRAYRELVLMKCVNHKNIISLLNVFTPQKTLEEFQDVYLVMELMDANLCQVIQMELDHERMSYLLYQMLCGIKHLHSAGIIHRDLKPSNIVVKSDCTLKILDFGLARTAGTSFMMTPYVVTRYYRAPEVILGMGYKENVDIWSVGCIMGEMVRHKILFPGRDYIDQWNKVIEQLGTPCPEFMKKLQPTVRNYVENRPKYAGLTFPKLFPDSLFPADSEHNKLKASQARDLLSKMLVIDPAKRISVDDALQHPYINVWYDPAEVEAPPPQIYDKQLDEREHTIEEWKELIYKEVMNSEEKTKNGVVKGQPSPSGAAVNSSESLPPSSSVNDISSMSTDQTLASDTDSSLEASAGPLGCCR
T3 sequence (P21802 399-821): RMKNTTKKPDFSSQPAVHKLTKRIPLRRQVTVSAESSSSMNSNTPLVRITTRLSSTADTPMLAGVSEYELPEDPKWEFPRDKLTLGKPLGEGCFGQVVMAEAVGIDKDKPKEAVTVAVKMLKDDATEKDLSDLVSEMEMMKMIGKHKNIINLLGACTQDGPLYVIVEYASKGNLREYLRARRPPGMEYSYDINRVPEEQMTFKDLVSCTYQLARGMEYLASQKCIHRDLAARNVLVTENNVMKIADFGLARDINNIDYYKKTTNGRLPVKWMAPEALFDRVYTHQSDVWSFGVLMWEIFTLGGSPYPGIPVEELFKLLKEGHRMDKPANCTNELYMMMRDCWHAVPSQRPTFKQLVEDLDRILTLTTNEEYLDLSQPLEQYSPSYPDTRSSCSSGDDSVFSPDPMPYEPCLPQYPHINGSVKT
T2 sequence (Q99683 whole entry, the tested form may be a part): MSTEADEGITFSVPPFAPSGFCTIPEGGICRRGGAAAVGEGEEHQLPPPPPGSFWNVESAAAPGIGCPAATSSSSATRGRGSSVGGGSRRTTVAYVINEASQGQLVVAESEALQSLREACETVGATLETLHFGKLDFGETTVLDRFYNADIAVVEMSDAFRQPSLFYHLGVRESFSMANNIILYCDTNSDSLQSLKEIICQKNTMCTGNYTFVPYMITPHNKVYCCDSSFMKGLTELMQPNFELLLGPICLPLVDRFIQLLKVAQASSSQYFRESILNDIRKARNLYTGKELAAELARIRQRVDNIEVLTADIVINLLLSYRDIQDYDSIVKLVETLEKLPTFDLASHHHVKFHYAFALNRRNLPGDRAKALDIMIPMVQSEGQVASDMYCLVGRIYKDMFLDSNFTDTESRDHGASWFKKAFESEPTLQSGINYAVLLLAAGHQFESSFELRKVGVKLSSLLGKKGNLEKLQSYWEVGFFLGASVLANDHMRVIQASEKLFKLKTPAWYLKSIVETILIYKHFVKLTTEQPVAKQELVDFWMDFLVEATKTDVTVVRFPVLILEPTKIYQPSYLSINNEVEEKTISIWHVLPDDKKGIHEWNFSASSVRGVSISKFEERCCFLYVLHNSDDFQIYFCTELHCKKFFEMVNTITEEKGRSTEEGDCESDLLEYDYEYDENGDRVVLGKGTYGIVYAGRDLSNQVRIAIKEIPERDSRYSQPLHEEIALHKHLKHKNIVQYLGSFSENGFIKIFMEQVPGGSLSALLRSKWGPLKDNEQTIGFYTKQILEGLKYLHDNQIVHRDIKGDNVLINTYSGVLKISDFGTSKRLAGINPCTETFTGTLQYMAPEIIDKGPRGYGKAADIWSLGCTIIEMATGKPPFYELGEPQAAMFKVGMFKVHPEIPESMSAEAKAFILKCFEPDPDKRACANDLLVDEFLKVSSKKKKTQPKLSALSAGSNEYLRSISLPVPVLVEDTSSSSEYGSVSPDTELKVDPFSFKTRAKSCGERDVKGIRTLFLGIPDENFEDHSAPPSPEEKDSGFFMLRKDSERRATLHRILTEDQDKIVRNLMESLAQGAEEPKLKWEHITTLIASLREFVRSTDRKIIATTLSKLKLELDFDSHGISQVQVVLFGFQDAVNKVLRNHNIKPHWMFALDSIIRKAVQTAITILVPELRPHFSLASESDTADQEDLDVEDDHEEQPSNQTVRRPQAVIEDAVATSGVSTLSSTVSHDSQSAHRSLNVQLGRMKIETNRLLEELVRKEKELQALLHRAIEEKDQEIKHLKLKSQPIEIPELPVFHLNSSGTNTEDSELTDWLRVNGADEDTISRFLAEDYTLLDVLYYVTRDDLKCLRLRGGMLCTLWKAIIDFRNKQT
T10 sequence (P04629 442-796): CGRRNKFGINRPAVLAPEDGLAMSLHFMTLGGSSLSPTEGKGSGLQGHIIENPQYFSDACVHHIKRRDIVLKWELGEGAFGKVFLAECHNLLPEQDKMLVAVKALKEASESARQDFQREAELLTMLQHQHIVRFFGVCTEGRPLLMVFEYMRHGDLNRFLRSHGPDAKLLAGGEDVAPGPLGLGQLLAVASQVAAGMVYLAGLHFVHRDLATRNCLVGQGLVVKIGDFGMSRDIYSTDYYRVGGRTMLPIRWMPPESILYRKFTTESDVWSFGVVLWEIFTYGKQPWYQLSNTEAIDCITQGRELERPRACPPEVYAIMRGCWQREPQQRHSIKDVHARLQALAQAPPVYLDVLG
T5 sequence (P08069 959-1367): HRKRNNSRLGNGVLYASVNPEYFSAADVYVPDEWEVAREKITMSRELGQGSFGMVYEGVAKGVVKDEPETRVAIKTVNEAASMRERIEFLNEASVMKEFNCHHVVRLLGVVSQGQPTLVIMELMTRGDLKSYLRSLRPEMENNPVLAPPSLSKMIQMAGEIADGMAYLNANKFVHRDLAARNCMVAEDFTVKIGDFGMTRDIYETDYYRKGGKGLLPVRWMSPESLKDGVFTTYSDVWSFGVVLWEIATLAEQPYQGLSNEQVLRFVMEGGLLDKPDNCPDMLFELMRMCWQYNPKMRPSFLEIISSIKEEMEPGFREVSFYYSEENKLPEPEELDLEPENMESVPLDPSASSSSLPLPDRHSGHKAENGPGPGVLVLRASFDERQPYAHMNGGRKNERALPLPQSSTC
T11 sequence (Q16288 456-825 isoform Q16288-3 limits assumed): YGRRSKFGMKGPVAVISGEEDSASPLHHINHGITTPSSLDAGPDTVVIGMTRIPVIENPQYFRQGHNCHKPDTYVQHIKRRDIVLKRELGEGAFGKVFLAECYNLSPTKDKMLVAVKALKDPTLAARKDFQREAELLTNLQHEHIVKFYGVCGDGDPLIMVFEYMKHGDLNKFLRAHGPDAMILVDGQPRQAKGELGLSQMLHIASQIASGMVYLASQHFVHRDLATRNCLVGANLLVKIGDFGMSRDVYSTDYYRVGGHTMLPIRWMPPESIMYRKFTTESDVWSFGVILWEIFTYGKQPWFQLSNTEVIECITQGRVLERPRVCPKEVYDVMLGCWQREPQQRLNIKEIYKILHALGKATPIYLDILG
T12 sequence (Q16539 9-352): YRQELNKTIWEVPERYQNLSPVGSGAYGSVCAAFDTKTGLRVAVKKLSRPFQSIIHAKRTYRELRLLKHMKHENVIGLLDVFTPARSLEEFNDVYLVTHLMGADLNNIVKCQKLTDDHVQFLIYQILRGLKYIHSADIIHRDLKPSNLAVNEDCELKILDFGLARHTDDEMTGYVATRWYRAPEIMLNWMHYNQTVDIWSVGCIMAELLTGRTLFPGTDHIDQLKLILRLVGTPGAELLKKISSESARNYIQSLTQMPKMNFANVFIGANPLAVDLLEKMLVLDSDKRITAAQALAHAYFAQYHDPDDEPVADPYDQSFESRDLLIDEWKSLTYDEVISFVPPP

Structure (SMILES): C=CCC1CCCC(CCC(=O)O)C1=C (stereo not shown) [HU-MCA-13, 3-(3-allyl-2-methylenecyclohexyl)propanoic acid]
- effect on kinase activity [1]: no effects
- effect on kinase activity [2]: no effects
- effect on kinase activity [3]: no effects
- effect on kinase activity [4]: no effects
- effect on kinase activity [5]: no effects
- effect on kinase activity [6]: no effects
- effect on kinase activity [7]: no effects
- effect on kinase activity [8]: no effects
- effect on kinase activity [9]: no effects
- effect on kinase activity [10]: no effects
- modulation of phosphorylation activity [11]: no effects
- modulation of phosphorylation activity [12]: slight inhibitory effect
- effect on kinase activity [13]: no effects
